Like-named read-outs stand apart in the source and are kept apart here.
Assays:
Type in all cases: binding
[1] = target: T1, TYK2(JH1domain-catalytic) (Homo sapiens, UniProt P29597); details: for remaining binding at 10 µM: read-out: Percent control; for Percent control: 10 μM
T1 construct: TYK2(JH1domain-catalytic); purchased DiscoveRx (KINOMEscan service)
T1 sequence (P29597 897-1176 limits assumed): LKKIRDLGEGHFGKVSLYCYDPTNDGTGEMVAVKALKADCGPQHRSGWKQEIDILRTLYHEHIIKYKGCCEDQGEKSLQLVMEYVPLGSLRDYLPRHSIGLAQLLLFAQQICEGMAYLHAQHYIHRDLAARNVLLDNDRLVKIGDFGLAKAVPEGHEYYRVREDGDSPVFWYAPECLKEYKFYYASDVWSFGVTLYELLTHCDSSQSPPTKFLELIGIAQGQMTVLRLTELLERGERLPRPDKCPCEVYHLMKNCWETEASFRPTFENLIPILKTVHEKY

FES = target: T2, FES (Homo sapiens, UniProt P07332); details: for remaining binding at 10 µM: read-out: Percent control
T2 construct: purchased DiscoveRx KINOMEscan

EPHA2 = target: T3, EPHA2 (Homo sapiens, UniProt P29317); details: for remaining binding at 10 µM: read-out: Percent control
T3 construct: purchased DiscoveRx KINOMEscan

BRK = target: T4, BRK (Homo sapiens, UniProt Q13882); details: for remaining binding at 10 µM: read-out: Percent control; for Percent control: BRK, 10 μM
T4 construct: purchased DiscoveRx KINOMEscan

EPHB3 = target: T5, EPHB3 (Homo sapiens, UniProt P54753); details: for remaining binding at 10 µM: read-out: Percent control
T5 construct: purchased DiscoveRx KINOMEscan
T5 sequence (P54753 34-998): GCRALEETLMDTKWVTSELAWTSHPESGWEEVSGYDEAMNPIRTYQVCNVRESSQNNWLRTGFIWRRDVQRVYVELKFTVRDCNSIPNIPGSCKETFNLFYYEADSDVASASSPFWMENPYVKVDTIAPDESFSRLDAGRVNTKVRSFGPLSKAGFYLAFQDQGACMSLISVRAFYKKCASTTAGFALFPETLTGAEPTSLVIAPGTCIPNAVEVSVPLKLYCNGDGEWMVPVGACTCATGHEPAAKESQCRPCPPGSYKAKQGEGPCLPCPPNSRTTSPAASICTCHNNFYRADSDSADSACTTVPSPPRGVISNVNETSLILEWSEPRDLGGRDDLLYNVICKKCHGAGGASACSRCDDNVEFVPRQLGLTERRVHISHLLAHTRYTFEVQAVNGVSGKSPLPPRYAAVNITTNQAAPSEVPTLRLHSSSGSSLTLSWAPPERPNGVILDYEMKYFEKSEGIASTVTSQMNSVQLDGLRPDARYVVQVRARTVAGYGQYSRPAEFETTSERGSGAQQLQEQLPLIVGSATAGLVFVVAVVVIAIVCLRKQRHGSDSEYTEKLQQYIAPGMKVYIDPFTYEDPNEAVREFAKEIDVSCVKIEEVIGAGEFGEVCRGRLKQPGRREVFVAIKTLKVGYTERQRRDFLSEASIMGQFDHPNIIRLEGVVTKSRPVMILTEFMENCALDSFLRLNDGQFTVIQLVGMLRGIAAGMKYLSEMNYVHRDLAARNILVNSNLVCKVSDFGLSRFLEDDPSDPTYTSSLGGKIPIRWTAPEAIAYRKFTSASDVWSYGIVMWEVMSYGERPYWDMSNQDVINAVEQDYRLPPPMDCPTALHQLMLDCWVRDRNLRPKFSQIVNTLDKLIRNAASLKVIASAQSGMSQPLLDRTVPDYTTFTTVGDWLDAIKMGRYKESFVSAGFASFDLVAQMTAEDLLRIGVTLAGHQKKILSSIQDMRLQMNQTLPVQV

INSRR = target: T6, INSRR (Homo sapiens, UniProt P14616); details: for remaining binding at 10 µM: read-out: Percent control
T6 construct: purchased DiscoveRx KINOMEscan

[2] = target: T7, TYK2(JHSdomain-pseudokinase) (Homo sapiens, UniProt P29597); details: for remaining binding at 10 µM: read-out: Percent control; for Percent control: 10 μM
T7 construct: TYK2(JHSdomain-pseudokinase); purchased DiscoveRx Corporation (KINOMEscan service)

BMX = target: T8, BMX (Homo sapiens, UniProt P51813); details: for remaining binding at 10 µM: read-out: Percent control
T8 construct: purchased DiscoveRx KINOMEscan
T8 sequence (P51813 1-675): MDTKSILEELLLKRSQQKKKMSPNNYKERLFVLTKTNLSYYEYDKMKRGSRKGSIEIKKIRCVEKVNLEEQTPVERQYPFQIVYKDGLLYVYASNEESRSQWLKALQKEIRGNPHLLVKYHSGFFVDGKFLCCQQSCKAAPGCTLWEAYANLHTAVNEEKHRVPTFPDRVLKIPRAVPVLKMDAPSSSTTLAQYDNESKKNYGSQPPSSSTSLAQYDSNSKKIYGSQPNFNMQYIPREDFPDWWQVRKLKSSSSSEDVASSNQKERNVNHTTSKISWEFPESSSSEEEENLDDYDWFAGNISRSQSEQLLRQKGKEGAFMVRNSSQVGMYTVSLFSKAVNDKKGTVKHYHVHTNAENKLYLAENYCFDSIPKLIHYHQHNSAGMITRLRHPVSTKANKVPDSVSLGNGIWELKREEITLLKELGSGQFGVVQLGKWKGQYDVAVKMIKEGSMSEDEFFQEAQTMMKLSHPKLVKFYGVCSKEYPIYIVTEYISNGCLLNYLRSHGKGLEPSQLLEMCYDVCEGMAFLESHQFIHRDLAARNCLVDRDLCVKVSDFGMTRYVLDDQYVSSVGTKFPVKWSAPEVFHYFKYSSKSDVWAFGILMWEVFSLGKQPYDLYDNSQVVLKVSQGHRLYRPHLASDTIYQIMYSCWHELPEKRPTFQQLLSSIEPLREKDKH

TRKA = target: T9, TRKA (Homo sapiens, UniProt P04629); details: for remaining binding at 10 µM: read-out: Percent control
T9 construct: purchased DiscoveRx (KINOMEscan service)

VEGFR2 = target: T10, VEGFR2 (Homo sapiens, UniProt P35968); details: for remaining binding at 10 µM: read-out: Percent control; for Percent control: 10 μM
T10 construct: purchased DiscoveRx Corporation (KINOMEscan service)

IGF1R = target: T11, IGF1R (Homo sapiens, UniProt P08069); details: for remaining binding at 10 µM: read-out: Percent control
T11 construct: purchased DiscoveRx KINOMEscan

PYK2 = target: T12, PYK2 (Homo sapiens, UniProt Q14289); details: for remaining binding at 10 µM: read-out: Percent control
T12 construct: purchased DiscoveRx KINOMEscan

ERBB3 = target: T13, ERBB3 (Homo sapiens, UniProt P21860); details: for remaining binding at 10 µM: read-out: Percent control; for Percent control: ERBB3, 10 μM
T13 construct: purchased DiscoveRx KINOMEscan

INSR = target: T14, INSR (Homo sapiens, UniProt P06213); details: for remaining binding at 10 µM: read-out: Percent control
T14 construct: purchased DiscoveRx KINOMEscan
T14 sequence (P06213 28-1382): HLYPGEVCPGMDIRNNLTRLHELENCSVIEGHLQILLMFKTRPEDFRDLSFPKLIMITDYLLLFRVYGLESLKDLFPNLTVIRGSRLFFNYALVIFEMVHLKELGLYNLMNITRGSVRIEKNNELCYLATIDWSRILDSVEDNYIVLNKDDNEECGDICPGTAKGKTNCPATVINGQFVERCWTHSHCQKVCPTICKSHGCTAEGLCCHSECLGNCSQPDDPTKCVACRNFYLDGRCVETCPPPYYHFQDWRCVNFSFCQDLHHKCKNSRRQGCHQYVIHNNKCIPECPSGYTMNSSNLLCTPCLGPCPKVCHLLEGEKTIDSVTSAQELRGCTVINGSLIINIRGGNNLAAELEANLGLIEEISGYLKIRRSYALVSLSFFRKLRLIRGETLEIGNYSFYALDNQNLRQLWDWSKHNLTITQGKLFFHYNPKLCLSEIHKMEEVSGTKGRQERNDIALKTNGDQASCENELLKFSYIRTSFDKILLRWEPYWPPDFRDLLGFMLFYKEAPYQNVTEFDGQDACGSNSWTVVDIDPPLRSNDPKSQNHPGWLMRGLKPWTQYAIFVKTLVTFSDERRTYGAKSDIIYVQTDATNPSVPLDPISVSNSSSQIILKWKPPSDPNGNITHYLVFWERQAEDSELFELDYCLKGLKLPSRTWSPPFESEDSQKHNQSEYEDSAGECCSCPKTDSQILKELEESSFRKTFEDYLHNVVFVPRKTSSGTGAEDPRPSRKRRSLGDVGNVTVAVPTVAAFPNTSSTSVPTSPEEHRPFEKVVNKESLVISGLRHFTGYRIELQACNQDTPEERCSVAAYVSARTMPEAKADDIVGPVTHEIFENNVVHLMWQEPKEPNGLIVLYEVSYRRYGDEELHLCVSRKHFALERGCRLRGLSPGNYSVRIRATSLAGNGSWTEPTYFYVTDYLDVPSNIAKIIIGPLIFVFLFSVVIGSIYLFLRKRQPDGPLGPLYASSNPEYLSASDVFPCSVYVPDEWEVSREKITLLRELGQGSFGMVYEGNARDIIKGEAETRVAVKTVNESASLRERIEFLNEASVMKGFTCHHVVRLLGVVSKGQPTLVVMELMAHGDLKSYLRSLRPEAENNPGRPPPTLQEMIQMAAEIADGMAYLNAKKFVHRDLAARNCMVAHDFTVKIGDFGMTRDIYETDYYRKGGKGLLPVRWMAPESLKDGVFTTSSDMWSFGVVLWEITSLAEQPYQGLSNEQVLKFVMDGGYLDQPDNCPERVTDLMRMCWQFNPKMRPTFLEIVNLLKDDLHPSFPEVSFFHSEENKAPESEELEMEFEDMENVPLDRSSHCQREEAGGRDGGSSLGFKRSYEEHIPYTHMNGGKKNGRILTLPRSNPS

T6 sequence (P14616 27-1297): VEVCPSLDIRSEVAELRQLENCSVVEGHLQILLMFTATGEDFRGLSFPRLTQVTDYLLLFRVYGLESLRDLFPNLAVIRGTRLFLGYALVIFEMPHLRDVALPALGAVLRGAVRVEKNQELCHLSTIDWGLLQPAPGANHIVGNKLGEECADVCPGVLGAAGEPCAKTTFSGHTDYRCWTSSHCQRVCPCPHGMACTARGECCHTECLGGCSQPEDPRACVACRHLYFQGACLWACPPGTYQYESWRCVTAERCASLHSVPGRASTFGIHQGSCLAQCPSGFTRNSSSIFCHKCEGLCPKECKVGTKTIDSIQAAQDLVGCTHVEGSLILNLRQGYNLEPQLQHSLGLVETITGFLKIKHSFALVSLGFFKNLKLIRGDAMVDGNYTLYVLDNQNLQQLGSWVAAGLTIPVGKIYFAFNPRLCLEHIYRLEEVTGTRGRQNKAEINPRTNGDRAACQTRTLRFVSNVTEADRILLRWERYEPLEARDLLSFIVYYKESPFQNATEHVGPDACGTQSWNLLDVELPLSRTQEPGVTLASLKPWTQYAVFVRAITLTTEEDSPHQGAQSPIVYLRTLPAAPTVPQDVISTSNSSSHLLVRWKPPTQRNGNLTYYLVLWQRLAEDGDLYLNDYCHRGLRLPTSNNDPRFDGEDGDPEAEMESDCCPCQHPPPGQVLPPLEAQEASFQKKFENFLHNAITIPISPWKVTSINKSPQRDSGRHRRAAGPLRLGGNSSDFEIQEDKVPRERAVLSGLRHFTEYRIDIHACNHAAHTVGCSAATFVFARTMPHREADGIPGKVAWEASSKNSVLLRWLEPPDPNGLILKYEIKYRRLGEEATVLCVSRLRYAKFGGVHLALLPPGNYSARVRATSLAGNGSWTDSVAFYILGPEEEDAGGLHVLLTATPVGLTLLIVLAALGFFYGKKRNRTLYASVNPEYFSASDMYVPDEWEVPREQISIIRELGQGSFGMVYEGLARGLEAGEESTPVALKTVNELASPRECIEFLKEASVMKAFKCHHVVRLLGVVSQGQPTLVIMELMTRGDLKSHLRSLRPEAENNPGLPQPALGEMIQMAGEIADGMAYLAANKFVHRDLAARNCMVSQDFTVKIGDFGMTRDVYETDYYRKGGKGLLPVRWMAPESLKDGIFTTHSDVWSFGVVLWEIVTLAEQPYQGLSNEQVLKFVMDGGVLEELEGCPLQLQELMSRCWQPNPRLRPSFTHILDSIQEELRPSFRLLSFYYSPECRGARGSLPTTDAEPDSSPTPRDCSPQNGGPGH
T4 sequence (Q13882 whole entry): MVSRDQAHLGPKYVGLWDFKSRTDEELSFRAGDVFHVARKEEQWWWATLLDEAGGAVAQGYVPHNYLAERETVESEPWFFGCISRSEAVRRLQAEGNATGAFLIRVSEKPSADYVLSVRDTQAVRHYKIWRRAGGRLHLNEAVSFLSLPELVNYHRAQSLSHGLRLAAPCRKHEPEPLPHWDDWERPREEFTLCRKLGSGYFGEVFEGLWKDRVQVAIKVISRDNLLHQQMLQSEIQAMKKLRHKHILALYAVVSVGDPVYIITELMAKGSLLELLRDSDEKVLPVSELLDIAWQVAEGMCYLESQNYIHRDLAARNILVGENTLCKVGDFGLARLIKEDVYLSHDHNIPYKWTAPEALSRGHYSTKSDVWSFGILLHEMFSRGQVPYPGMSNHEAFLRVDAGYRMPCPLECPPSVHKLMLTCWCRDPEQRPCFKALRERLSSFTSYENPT
T2 sequence (P07332 whole entry): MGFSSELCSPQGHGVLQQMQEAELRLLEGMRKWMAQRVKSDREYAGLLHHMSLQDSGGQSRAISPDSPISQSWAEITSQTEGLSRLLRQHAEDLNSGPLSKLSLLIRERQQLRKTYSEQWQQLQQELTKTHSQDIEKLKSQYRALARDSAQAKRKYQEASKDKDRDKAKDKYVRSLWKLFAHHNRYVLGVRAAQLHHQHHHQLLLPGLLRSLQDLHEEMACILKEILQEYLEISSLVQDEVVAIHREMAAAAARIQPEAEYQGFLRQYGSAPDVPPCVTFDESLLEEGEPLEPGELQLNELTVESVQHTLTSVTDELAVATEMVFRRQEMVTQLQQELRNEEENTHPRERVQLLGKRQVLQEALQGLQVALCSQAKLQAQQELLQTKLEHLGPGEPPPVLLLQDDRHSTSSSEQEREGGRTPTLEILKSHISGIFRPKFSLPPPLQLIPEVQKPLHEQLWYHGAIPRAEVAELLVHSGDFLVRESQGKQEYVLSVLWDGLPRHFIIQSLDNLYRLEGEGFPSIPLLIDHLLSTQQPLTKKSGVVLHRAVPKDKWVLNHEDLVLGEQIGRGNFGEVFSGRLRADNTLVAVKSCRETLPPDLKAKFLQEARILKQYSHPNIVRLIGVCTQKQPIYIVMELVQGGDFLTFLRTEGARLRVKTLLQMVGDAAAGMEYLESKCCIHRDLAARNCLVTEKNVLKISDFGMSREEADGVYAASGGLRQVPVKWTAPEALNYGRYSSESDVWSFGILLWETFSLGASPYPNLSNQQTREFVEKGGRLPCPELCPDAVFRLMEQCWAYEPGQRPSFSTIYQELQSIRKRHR
T9 sequence (P04629 33-796): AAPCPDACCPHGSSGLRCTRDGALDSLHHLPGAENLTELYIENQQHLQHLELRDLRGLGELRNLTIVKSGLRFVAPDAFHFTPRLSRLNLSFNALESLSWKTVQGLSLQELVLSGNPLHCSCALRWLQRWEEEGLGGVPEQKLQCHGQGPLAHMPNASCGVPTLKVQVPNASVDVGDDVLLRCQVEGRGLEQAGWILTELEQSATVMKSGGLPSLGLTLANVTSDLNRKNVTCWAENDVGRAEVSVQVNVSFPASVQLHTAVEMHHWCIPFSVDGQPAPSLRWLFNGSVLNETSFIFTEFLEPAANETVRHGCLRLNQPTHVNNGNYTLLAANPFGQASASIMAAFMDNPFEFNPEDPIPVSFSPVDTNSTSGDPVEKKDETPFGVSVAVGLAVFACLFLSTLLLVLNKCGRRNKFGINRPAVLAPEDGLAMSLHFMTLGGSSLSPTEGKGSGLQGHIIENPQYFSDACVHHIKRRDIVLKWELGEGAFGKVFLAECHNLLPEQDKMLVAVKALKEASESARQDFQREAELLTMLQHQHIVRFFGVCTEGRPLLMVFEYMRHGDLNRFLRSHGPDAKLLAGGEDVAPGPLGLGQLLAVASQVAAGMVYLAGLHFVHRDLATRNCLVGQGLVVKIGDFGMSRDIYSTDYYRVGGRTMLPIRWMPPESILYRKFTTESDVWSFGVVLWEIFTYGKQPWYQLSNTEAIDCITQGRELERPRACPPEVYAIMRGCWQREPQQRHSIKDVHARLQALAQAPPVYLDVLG
T7 sequence (P29597 589-875 limits assumed): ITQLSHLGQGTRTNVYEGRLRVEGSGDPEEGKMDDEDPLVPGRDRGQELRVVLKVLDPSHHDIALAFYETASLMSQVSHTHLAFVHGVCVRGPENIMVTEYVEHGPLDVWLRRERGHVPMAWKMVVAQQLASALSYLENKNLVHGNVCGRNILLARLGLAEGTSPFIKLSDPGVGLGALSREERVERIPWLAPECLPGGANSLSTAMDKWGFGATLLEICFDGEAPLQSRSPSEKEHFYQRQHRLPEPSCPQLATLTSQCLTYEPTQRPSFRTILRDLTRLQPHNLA

SMILES	remaining binding at 10 µM [1] [%]	remaining binding at 10 µM (BRK) [%]	remaining binding at 10 µM [2] [%]	remaining binding at 10 µM (VEGFR2) [%]	remaining binding at 10 µM (ERBB3) [%]	Percent control [1] [%]	Percent control (FES; FES, 10 μM) [%]	Percent control (EPHA2; EPHA2, 10 μM) [%]	Percent control (BRK) [%]	Percent control (EPHB3; EPHB3, 10 μM) [%]	Percent control (INSRR; INSRR, 10 μM) [%]	Percent control [2] [%]	Percent control (BMX; BMX, 10 μM) [%]	Percent control (TRKA; TRKA, 10 μM) [%]	Percent control (VEGFR2) [%]	Percent control (IGF1R; IGF1R, 10 μM) [%]	Percent control (PYK2; PYK2, 10 μM) [%]	Percent control (ERBB3) [%]	Percent control (INSR; INSR, 10 μM) [%]	also measured
C#Cc1cccc(Nc2ncnc3cc(OCCOC)c(OCCOC)cc23)c1 [Erlotinib]	100	100	19.4	36.3	9.9	–	–	–	–	–	–	–	–	–	–	–	–	–	–	remaining binding at 10 µM (FES): 100%; remaining binding at 10 µM (EPHA2): 100%; remaining binding at 10 µM (EPHB3): 100%; remaining binding at 10 µM (INSRR): 100%; remaining binding at 10 µM (BMX): 100%; remaining binding at 10 µM (TRKA): 100%; remaining binding at 10 µM (IGF1R): 100%; remaining binding at 10 µM (PYK2): 100%; remaining binding at 10 µM (INSR): 100%
Cc1ccc(NC(=O)c2ccc(CN3CCN(C)CC3)cc2)cc1Nc1nccc(-c2cccnc2)[n+]1[Pt-2]1([Cl])[NH2+]C2CCCCC2[NH2+]1 (stereo not drawn) [1b, oxaliplatin-imatinib]	–	–	–	–	–	94	96	99	93	87	100	100	98	98	100	100	92	100	92	–
Cc1ccc(NC(=O)c2ccc(CN3CCN(C)CC3)cc2)cc1Nc1nccc(-c2cccnc2)n1 [Imatinib, reference compound]	100	–	46.5	–	–	–	100	100	100	100	100	–	100	100	100	100	100	100	100	–
COc1cc2c(Nc3ccc(Br)cc3F)ncnc2cc1OCC1CCN(C)CC1 [Vandetanib, reference compound]	100	1.6	100	7.6	1.6	–	–	–	–	–	–	–	–	–	–	–	–	–	–	remaining binding at 10 µM (FES; FES, 10 μM): 100%; remaining binding at 10 µM (EPHA2; EPHA2, 10 μM): 9.9%; remaining binding at 10 µM (EPHB3; EPHB3, 10 μM): 100%; remaining binding at 10 µM (INSRR; INSRR, 10 μM): 100%; remaining binding at 10 µM (BMX; BMX, 10 μM): 100%; remaining binding at 10 µM (TRKA; TRKA, 10 μM): 100%; remaining binding at 10 µM (IGF1R; IGF1R, 10 μM): 100%; remaining binding at 10 µM (PYK2; PYK2, 10 μM): 100%; remaining binding at 10 µM (INSR; INSR, 10 μM): 100%
COc1cc2c(Nc3ccc(Br)cc3F)[n+]([Pt-2]3([Cl])[NH2+]C4CCCCC4[NH2+]3)cnc2cc1OCC1CCN(C)CC1 (stereo not drawn) [3b, oxaliplatin-vandetanib]	–	–	–	–	–	83	100	43	27	100	100	100	92	92	3.2	100	80	4.1	72	–
C#Cc1cccc(Nc2c3cc(OCCOC)c(OCCOC)cc3nc[n+]2[Pt@SP2-2]([NH3+])([NH3+])[Cl])c1 [2a, cisplatin-erlotinib]	–	–	–	–	–	92	98	93	89	88	100	100	100	94	98	86	90	100	85	–
